{"source": "patent US20190194179A1", "about": "“ANTIBIOTIC COMPOUNDS” (DISCUVA LTD., priority 2016, published 2019)", "note": "Counter-ions that a name gives are not always drawn.", "data": [{"test_system": "Neisseria gonorrhoeae", "experiment": "EC50 determination: plate-based broth growth assay (absorbance at 600 nm) of Neisseria gonorrhoeae", "type": "cell-based", "conditions": "absorbance 600 nm after 20 hours at 37° C./5% CO2, read-out: IC50 (Inhibitory concentration) against Neisseria gonorrhoeae", "in_short": "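Mid-log culture diluted to ~10^5 cells/ml as inoculum and grown 20 hours at 37° C./5% CO2 across a 10-point compound dilution series. Growth read as absorbance at 600 nm; EC50 taken from transformed data as the concentration giving 50% response relative to no-compound controls.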", "units": {"IC50": "nM"}, "values": [{"molecule": "Cc1nnc(Nc2nc3cc(C(F)(F)F)ccc3[nH]2)s1", "note": "[Example 86, 5-Methyl-N-(5-(trifluoromethyl)-1H-benzo[d]imidazol-2-yl)-1,3,4-thiadiazol-2-amine]", "IC50": "≤ 1000"}, {"molecule": "CCOC(=O)c1noc(Nc2nc3ccc(Cl)cc3o2)n1", "note": "[Example 216, Ethyl 5-((6-chlorobenzo[d]oxazol-2-yl)amino)-1,2,4-oxadiazole-3-carboxylate]", "IC50": "≤ 1000"}, {"molecule": "CC(=O)N(C)c1ccc2nc(Nc3nnco3)oc2c1", "note": "[Example 215, N-(2-((1,3,4-Oxadiazol-2-yl)amino)benz-o[d]oxazol-6-yl)-N-methylacetamide]", "IC50": "≤ 100000"}, {"molecule": "CN(C)Cc1nnc(Nc2nc3ccc(Cl)cc3o2)o1", "note": "[Example 81, 6-Chloro-N-(5-((dimethylamino)methyl)-1,3,4-oxadiazol-2-yl)benzo[d]oxazol-2-amine]", "IC50": "≤ 1000"}, {"molecule": "O=C(NC1CC1)c1csc(Nc2nc3cc(F)ccc3o2)n1", "note": "[Example 18, N-Cyclopropyl-2-((5-fluorobenzo[d]oxazol-2-yl)amino)thiazole-4-carboxamide]", "IC50": "≤ 1000"}, {"molecule": "CN(C)Cc1nnc(Nc2nc3cc(C(F)(F)F)ccc3o2)[nH]1", "note": "[Example 136, N-(5-((Dimethylamino)methyl)-4H-1,2,4-triazol-3-yl)-5-(trifluoromethyl)benzo[d]oxazol-2-amine]", "IC50": "≤ 1000"}, {"molecule": "Cc1nnc(Nc2nc3cccc(Cl)c3o2)[nH]1", "note": "[Example 121, 7-Chloro-N-(5-methyl-4H-1,2,4-triazol-3-yl)benzo[d]oxazol-2-amine]", "IC50": "≤ 100"}, {"molecule": "CC(C)c1ccc2nc(Nc3nnco3)oc2c1", "note": "[Example 211, 6-Isopropyl-N-(1,3,4-oxadiazol-2-yl)benzo[d]oxa-zol-2-amine]", "IC50": "≤ 1000"}, {"molecule": "Cn1c(Nc2nnco2)nc2cc(C(F)(F)F)ccc21", "note": "[Example 69, N-(1-methyl-5-(trifluoromethyl)-1H-benzo[d]imidazol-2-yl)-1,3,4-oxadiazol-2-amine]", "IC50": "≤ 1000"}, {"molecule": "FC(F)(F)c1ccc2oc(Nc3ccon3)nc2c1", "note": "[Example 11, N-(Isoxazol-3-yl)-5-(trifluoromethyl)benzo[d]oxazol-2-amine]", "IC50": "≤ 1000"}, {"molecule": "Cc1nnc(Nc2nc3c(C)nccc3o2)o1", "note": "[Example 154, 4-Methyl-N-(5-methyl-1,3,4-oxadiazol-2-yl)oxazolo[4,5-c]pyridin-2-amine]", "IC50": "≤ 10000"}, {"molecule": "CC(C)(C)OC(=O)N1CCN(c2nnc(Nc3nc4cc(C(F)(F)F)ccc4o3)o2)CC1", "note": "[Example 148, tert-butyl 4-(5-((5-(trifluoromethyl)benzo[d]oxazol-2-yl)amino)-1,3,4-oxadiazol-2-yl)piperazine-1-carboxylate]", "IC50": "≤ 100000"}, {"molecule": "Cc1nnc(Nc2nc3cccc(Cl)c3o2)o1", "note": "[Example 39, 7-Chloro-N-(5-methyl-1,3,4-oxadiazol-2-yl)benzo[d]oxazol-2-amine]", "IC50": "≤ 1000"}, {"molecule": "FC(F)(F)c1ccc2oc(Nc3nnc(CN4CCCCC4)o3)nc2c1", "note": "[Example 72, N-(5-(Piperidin-1-ylmethyl)-1,3,4-oxadiazol-2-yl)-5-(trifluoromethyl)benzo[d]oxazol-2-amine]", "IC50": "≤ 1000"}, {"molecule": "c1nnc(Nc2nc3ccc(N4CCOCC4)cc3o2)o1", "note": "[Example 185, 6-Morpholino-N-(1,3,4-oxadiazol-2-yl)benzo[d]ox-azol-2-amine]", "IC50": "≤ 10000"}, {"molecule": "CC(C)c1nnc(Nc2nc3ccc(Cl)cc3o2)o1", "note": "[Example 214, 6-Chloro-N-(5-isopropyl-1,3,4-oxadiazol-2-yl)benzo[d]oxa-zol-2-amine]", "IC50": "≤ 100"}, {"molecule": "Cc1nnc(Nc2nc3c(C(F)(F)F)cccc3o2)o1", "note": "[Example 118, N-(5-Methyl-1,3,4-oxadiazol-2-yl)-4-(trifluoromethyl)benzo[d]oxazol-2-amine]", "IC50": "≤ 10000"}, {"molecule": "Clc1ccc2oc(Nc3cscn3)nc2c1", "note": "[Example 173, 5-Chloro-N-(thiazol-4-yl)benzo[d]oxazol-2-amine]", "IC50": "≤ 10000"}, {"molecule": "Cn1cnnc1Nc1nc2cc(C(F)(F)F)ccc2o1", "note": "[Example 41, N-(4-methyl-4H-1,2,4-triazol-3-yl)-5-(trifluoromethyl)benzo[d]oxazol-2-amine]", "IC50": "≤ 1000"}, {"molecule": "Cc1cc(Cl)cc2oc(Nc3nnco3)nc12", "note": "[Example 189, 6-Chloro-4-methyl-N-(1,3,4-oxadiazol-2-yl)benzo[d]ox-azol-2-amine]", "IC50": "≤ 100"}, {"molecule": "Fc1cc2nc(Nc3nnco3)oc2cc1Cl", "note": "[Example 47, 6-Chloro-5-fluoro-N-(1,3,4-oxadiazol-2-yl)benzo[d]oxazol-2-amine]", "IC50": "≤ 100"}, {"molecule": "Fc1ccc2oc(Nc3nnco3)nc2c1", "note": "[Example 66, 5-Fluoro-N-(1,3,4-oxadiazol-2-yl)benzo[d]oxazol-2-amine]", "IC50": "≤ 1000"}, {"molecule": "Fc1cc2nc(Nc3nnco3)oc2cc1F", "note": "[Example 48, 5,6-diFluoro-N-(1,3,4-oxadiazol-2-yl)benzo[d]oxazol-2-amine]", "IC50": "≤ 100"}, {"molecule": "O=C(O)c1ccc2nc(Nc3nnco3)oc2c1", "note": "[Example 192, 2-((1,3,4-oxadiazol-2-yl)amino)benzo[d]oxazole-6-carboxylic acid]", "IC50": "≤ 10000"}, {"molecule": "c1nnc(Nc2nc3ccc(N4CCCC4)cc3o2)o1", "note": "[Example 183, N-(1,3,4-oxadiazol-2-yl)-6-(pyrrolidin-1-yl)benzo[d]ox-azol-2-amine]", "IC50": "≤ 1000"}, {"molecule": "Cc1cnc(Nc2nc3cc(C(F)(F)F)ccc3o2)o1", "note": "[Example 112, N-(5-Methyloxazol-2-yl)-5-(trifluoromethyl)benzo[d]oxazol-2-amine]", "IC50": "≤ 1000"}, {"molecule": "COCCOc1ccc2nc(Nc3nnco3)oc2c1", "note": "[Example 193, 6-(2-methoxyethoxy)-N-(1,3,4-oxadiazol-2-yl)benzo[d]oxazol-2-amine]", "IC50": "≤ 1000"}, {"molecule": "O=C(c1nnc(Nc2nc3c(Cl)cccc3o2)o1)N1CCCC1", "note": "[Example 134, (5-((4-Chlorobenzo[d]oxazol-2-yl)amino)-1,3,4-oxadiazol-2-yl)(pyrrolidin-1-yl)methanone]", "IC50": "≤ 10000"}, {"molecule": "Cn1cnc(Nc2nc3cc(C(F)(F)F)c(Cl)cc3o2)c1", "note": "[Example 140, 6-Chloro-N-(1-methyl-1H-imidazol-4-yl)-5-(trifluoromethyl)benzo[d]oxazol-2-amine]", "IC50": "≤ 1000"}, {"molecule": "FC(F)(F)c1ccc2nc(Nc3ncc(N4CCNCC4)s3)oc2c1", "note": "[Example 49, N-(5-(Piperazin-1-yl)thiazol-2-yl)-6-(trifluoromethyl)benzo[d]oxazol-2-amine hydrochloride]", "IC50": "≤ 1000"}, {"molecule": "FC(F)(F)c1ccc2oc(Nc3nc(Cl)cs3)nc2c1", "note": "[Example 100, N-(4-Chlorothiazol-2-yl)-5-(trifluoromethyl)benzo[d]oxazol-2-amine]", "IC50": "≤ 1000"}, {"molecule": "Fc1cc2nc(Nc3nnco3)oc2cc1OC(F)(F)F", "note": "[Example 174, 5-Fluoro-N-(1,3,4-oxadiazol-2-yl)-6-(trifluoromethoxy)benzo[d]oxazol-2-amine]", "IC50": "≤ 100"}, {"molecule": "Cc1csc(Nc2nc3cc(C(F)(F)F)ccc3o2)n1", "note": "[Example 7, N-(4-Methylthiazol-2-yl)-5-(trifluoromethyl)benzo[d]oxazol-2-amine]", "IC50": "≤ 1000"}, {"molecule": "CCOC(=O)c1csc(Nc2nc3cc(C(F)(F)F)ccc3o2)n1", "note": "[Example 8, Ethyl 2-((5-(trifluoromethyl)benzo[d]oxazol-2-yl)amino)thiazole-4-carboxylate]", "IC50": "≤ 1000"}, {"molecule": "O=C(O)c1csc(Nc2nc3cc(Cl)ccc3o2)n1", "note": "[Example 96, 2-((5-Chlorobenzo[d]oxazol-2-yl)amino)thiazole-4-carboxylic acid]", "IC50": "≤ 10000"}, {"molecule": "Cc1nnc(Nc2nc3cc(C(F)(F)F)ccc3o2)n1C", "note": "[Example 143, N-(4,5-dimethyl-4H-1,2,4-triazol-3-yl)-5-(trifluoromethyl)benzo[d]oxazol-2-amine]", "IC50": "≤ 1000"}, {"molecule": "FC(F)(F)c1ccc2oc(Nc3nnc[nH]3)nc2c1", "note": "[Example 116, N-(4H-1,2,4-Triazol-3-yl)-5-(trifluoromethyl)benzo[d]oxazol-2-amine]", "IC50": "≤ 1000"}, {"molecule": "Clc1ccc2nc(Nc3nncs3)oc2c1", "note": "[Example 151, 6-Chloro-N-(1,3,4-thiadiazol-2-yl)benzo[d]oxazol-2-amine]", "IC50": "≤ 1000"}, {"molecule": "Clc1ccc2nc(Nc3nnc[nH]3)oc2c1", "note": "[Example 150, 6-Chloro-N-(4H-1,2,4-triazol-3-yl)benzo[d]oxazol-2-amine]", "IC50": "≤ 1000"}, {"molecule": "c1nnc(Nc2nc3ccc(C4CC4)cc3o2)o1", "note": "[Example 180, 6-Cyclopropyl-N-(1,3,4-oxadiazol-2-yl)benzo[d]ox-azol-2-amine]", "IC50": "≤ 1000"}, {"molecule": "Clc1ccc2oc(Nc3nnco3)nc2c1", "note": "[Example 135, 5-Chloro-N-(1,3,4-oxadiazol-2-yl)benzo[d]oxazol-2-amine]", "IC50": "≤ 100"}, {"molecule": "O=C(NC1CC1)c1csc(Nc2nc3ccc(F)cc3o2)n1", "note": "[Example 19, N-Cyclopropyl-2-((6-fluorobenzo[d]oxazol-2-yl)amino)thiazole-4-carboxamide]", "IC50": "≤ 1000"}, {"molecule": "COc1cc2nc(Nc3nnco3)oc2cc1F", "note": "[Example 209, 6-Fluoro-5-methoxy-N-(1,3,4-oxadiazol-2-yl)benzo[d]oxa-zol-2-amine]", "IC50": "≤ 1000"}, {"molecule": "Clc1cccc2oc(Nc3nnc(CN4CCCC4)[nH]3)nc12", "note": "[Example 130, 4-Chloro-N-(5-(pyrrolidin-1-ylmethyl)-4H-1,2,4-triazol-3-yl)benzo[d]oxazol-2-amine]", "IC50": "≤ 10000"}, {"molecule": "Cc1nnc(Nc2nc3cc(Cl)ccc3o2)o1", "note": "[Example 50, 5-Chloro-N-(5-methyl-1,3,4-oxadiazol-2-yl)benzo[d]oxazol-2-amine]", "IC50": "≤ 100"}, {"molecule": "N#Cc1nnc(Nc2nc3ccc(F)cc3o2)o1", "note": "[Example 218, 5-((6-Fluorobenzo[d]oxazol-2-yl)amino)-1,3,4-oxadiazole-2-carbonitrile]", "IC50": "≤ 1000"}, {"molecule": "CC(C)NC(=O)c1csc(Nc2nc3cc(C(F)(F)F)ccc3o2)n1", "note": "[Example 4, N-Isopropyl-2-((5-(trifluoromethyl)benzo[d]oxazol-2-yl)amino)thiazole-4-carboxamide]", "IC50": "≤ 1000"}, {"molecule": "Cc1nnc(Nc2nc3cnccc3o2)o1", "note": "[Example 58, N-(5-Methyl-1,3,4-oxadiazol-2-yl)oxazolo[4,5-c]pyridin-2-amine]", "IC50": "≤ 10000"}, {"molecule": "Cc1nnc(Nc2nc3cncc(Cl)c3o2)o1", "note": "[Example 64, 7-Chloro-N-(5-methyl-1,3,4-oxadiazol-2-yl)oxazolo[4,5-c]pyridin-2-amine]", "IC50": "≤ 10000"}]}]}
